Measured values reported in ChEMBL document CHEMBL3882729, “Receptor-type kinase modulators and methods of use” (2009).
pIC50: −log10 of the molar value.

Tests used:
Ephrin type-A receptor 2 = Ephrin type-A receptor 2 (Homo sapiens, UniProt P29317); assay: Inhibition of recombinant human N-terminal His6-tagged EphA2 (N598 to R890 residues) expressed in baculovirus using poly-EY as substrate after 180 mins by luciferase coupled chemiluminescence assay
[1] = target: Vascular endothelial growth factor receptor 1 (Homo sapiens, UniProt P17948); assay: Inhibition of recombinant human N-terminal GST-tagged factor 10a cleavage site-fused Flt1 (K784 to I1338 residues) expressed in baculovirus infected insect Sf9 cells using poly-EY as substrate after 120 mins in presence of gamma33P-ATP by liquid scintillation spectrometry
Chain of Vascular endothelial growth factor receptor 1 (P17948 whole entry, the tested form may be a part): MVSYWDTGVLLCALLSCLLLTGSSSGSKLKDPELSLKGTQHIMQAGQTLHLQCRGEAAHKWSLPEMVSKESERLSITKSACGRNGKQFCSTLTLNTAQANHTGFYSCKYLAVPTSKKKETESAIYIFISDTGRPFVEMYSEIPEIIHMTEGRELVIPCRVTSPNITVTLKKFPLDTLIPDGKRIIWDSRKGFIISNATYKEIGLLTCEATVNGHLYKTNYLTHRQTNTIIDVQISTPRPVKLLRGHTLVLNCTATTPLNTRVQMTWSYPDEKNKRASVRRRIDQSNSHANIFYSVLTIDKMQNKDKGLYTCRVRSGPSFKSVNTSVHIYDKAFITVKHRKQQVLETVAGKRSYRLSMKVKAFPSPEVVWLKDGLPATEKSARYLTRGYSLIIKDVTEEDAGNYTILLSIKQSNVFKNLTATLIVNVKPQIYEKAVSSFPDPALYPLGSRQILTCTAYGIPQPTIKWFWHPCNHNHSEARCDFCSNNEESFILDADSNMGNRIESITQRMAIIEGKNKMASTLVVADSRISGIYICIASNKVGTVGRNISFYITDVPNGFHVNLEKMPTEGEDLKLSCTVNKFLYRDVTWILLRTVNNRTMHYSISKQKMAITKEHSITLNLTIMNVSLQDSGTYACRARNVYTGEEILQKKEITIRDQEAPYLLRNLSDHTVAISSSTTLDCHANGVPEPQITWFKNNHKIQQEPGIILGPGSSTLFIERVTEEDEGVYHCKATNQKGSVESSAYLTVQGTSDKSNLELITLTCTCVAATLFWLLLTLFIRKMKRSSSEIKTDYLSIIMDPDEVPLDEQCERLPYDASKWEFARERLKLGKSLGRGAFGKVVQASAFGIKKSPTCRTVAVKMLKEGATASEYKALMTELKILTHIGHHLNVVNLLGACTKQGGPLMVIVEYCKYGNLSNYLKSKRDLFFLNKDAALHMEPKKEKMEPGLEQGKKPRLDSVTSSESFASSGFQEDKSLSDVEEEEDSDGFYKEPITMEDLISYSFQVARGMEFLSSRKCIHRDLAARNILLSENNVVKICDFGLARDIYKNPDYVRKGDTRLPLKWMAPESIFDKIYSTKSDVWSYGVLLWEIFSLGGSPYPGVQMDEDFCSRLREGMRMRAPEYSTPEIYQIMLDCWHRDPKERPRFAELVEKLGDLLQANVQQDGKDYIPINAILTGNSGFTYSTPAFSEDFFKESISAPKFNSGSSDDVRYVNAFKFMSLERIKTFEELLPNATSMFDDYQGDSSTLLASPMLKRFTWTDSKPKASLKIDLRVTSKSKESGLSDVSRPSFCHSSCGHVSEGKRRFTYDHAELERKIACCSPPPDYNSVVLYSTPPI

[2] = target: Vascular endothelial growth factor receptor 2 (Homo sapiens, UniProt P35968); assay: Inhibition of recombinant human N-terminal GST-fused KDR (D807 to V1356 residues) expressed in baculovirus infected […] insect Sf9 cells using poly-EY as substrate after 240 mins by luciferase coupled chemiluminescence assay
Chain of Vascular endothelial growth factor receptor 2 (P35968 whole entry, the tested form may be a part): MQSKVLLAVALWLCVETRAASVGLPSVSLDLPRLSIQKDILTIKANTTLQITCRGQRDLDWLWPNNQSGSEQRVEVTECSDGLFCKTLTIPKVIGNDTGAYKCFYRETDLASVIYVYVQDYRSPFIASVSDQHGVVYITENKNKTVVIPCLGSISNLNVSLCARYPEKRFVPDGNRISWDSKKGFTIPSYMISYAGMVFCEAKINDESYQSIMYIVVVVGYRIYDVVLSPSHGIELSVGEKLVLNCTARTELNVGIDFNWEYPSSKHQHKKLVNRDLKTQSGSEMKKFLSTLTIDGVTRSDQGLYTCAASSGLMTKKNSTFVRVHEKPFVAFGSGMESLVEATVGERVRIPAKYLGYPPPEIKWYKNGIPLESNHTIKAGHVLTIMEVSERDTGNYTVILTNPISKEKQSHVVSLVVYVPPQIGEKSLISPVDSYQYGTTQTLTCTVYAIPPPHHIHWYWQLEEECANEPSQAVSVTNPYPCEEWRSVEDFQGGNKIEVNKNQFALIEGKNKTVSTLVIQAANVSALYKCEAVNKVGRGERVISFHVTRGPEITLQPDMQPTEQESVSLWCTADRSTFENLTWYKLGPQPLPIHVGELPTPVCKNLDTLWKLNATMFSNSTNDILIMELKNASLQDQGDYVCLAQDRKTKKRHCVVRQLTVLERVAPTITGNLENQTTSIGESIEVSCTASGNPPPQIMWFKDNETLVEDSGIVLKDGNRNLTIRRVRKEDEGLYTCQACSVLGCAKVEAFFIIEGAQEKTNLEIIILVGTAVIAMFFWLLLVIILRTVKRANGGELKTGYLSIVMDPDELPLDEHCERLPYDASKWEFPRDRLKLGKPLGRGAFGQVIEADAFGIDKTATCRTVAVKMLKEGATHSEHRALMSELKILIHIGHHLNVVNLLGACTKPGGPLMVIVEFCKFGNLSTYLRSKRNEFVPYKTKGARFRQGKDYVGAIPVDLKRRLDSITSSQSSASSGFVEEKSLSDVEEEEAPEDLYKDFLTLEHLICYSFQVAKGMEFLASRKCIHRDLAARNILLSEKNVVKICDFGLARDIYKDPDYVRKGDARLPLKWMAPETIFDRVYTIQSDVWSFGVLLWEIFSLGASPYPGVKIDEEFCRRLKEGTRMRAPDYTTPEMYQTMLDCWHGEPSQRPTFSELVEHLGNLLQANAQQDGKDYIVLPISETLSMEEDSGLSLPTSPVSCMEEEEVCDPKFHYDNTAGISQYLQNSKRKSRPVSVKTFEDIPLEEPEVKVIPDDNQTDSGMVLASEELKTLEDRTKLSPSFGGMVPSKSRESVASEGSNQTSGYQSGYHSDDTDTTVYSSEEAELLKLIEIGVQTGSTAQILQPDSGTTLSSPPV

[3] = target: Receptor tyrosine-protein kinase erbB-2 (Homo sapiens, UniProt P04626); assay: Inhibition of recombinant human N-terminal GST His6-tagged thrombin cleavage site-fused ErbB2 kinase domain (Q679 to V1255 residues) expressed in baculovirus infected insect Sf9 cells using biotinylated poly-EY as substrate after 60 mins by alphascreen assay
Chain of Receptor tyrosine-protein kinase erbB-2 (P04626 whole entry, the tested form may be a part): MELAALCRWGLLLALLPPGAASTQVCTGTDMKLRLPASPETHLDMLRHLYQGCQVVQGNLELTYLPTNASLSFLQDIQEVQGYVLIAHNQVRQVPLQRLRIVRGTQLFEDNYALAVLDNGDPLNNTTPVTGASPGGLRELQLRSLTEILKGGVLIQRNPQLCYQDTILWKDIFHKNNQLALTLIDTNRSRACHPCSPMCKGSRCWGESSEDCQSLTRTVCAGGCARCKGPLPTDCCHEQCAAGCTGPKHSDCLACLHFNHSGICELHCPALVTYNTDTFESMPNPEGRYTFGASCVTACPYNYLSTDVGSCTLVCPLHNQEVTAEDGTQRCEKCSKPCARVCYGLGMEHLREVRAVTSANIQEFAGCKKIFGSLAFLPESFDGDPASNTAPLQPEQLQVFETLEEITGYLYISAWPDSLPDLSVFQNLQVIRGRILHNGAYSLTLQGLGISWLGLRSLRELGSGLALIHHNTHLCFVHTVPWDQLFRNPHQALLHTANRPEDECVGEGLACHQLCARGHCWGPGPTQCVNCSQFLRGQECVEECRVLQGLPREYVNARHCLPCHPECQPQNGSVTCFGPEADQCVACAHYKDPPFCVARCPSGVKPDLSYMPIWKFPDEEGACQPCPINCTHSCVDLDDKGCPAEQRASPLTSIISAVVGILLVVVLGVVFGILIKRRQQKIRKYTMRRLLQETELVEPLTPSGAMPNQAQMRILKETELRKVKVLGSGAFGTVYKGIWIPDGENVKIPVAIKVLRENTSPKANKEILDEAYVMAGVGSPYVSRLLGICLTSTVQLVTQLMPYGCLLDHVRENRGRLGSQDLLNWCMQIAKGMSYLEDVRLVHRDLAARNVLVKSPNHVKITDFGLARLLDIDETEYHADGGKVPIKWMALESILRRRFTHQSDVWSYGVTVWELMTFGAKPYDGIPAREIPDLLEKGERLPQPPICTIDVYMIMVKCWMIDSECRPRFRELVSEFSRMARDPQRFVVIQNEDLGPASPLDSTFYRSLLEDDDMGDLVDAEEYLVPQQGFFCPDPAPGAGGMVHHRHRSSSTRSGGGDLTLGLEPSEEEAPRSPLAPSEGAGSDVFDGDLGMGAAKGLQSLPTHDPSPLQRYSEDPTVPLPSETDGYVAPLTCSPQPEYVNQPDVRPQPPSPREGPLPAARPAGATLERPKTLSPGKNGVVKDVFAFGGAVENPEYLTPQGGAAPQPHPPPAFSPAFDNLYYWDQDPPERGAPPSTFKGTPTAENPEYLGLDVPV

Ephrin type-B receptor 4 = target: T1, Ephrin type-B receptor 4 (Homo sapiens, UniProt P54760); assay: Inhibition of recombinant human N-terminal His6-tagged EphB4 kinase domain (E605 to E890 residues) expressed in baculovirus using poly-AEKY as substrate after 150 mins in presence of gamma33P-ATP by liquid scintillation spectrometry
T1 sequence (P54760 whole entry): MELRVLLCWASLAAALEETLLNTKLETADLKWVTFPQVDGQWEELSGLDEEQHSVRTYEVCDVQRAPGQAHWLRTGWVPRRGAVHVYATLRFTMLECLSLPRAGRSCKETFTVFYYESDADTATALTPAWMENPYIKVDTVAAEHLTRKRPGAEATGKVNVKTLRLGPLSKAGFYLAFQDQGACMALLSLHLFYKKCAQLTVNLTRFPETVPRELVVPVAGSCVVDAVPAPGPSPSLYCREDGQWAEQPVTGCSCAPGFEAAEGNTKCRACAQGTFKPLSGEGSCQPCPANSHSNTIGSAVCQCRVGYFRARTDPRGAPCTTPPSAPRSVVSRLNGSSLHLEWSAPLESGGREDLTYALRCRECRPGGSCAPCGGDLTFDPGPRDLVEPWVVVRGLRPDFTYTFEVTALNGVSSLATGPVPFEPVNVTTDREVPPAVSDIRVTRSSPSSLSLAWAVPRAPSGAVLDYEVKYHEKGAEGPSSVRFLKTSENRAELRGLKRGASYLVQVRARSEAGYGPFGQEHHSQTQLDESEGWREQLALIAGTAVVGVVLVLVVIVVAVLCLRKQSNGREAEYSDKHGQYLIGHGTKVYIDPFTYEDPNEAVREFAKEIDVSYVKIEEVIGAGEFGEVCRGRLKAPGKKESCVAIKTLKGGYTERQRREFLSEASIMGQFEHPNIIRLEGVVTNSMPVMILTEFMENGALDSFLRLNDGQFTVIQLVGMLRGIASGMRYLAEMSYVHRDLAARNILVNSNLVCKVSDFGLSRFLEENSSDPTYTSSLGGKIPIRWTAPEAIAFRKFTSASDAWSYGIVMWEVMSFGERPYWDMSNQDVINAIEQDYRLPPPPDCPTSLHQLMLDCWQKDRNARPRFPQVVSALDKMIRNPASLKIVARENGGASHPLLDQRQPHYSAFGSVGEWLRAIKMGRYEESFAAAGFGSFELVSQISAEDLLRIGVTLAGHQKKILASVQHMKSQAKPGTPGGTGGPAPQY

Chain of Ephrin type-A receptor 2 (P29317 whole entry, the tested form may be a part): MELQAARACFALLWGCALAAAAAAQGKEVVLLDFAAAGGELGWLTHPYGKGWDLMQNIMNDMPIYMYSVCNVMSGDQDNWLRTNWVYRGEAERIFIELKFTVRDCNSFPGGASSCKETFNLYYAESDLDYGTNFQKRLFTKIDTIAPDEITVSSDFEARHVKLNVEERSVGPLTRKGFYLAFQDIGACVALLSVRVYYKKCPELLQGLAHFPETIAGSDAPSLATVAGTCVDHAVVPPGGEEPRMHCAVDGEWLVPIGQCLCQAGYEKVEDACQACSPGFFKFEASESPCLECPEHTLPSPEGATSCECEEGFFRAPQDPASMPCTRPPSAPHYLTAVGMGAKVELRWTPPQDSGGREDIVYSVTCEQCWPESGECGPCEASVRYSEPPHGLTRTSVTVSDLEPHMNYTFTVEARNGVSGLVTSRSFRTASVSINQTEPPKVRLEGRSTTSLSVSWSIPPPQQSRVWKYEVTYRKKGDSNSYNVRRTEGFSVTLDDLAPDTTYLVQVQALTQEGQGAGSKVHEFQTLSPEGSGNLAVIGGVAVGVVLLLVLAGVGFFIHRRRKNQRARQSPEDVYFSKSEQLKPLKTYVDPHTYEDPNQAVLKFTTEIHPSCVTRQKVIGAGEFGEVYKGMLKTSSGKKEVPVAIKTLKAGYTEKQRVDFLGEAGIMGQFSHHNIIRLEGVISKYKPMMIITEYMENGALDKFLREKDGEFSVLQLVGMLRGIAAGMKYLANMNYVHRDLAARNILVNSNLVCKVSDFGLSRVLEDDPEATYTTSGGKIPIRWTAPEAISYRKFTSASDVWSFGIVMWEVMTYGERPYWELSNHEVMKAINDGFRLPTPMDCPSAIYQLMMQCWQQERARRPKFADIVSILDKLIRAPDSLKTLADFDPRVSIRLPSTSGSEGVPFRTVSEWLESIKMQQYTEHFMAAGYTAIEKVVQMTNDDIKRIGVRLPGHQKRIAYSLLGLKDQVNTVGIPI

COc1cc2c(Nc3ccc(Cl)c(Cl)c3F)ncnc2cc1OC[C@@H]1CN2CCC[C@@H]2C(=O)N1
pIC50 (Ephrin type-A receptor 2): > 7.30
pIC50 [1]: 6.00 to 7.30
pIC50 [2]: > 7.30

COc1cc2c(Nc3ccc(Cl)c(Cl)c3)ncnc2cc1OCC1CN(C(N)=NC#N)CCO1 (stereo unspecified)
pIC50 [3]: > 7.30
pIC50 (Ephrin type-B receptor 4): > 7.30
pIC50 (Ephrin type-A receptor 2): > 7.30
pIC50 [2]: > 7.30

COc1cc2c(Nc3ccc(Br)c(Cl)c3)ncnc2cc1OCC1CN(C)CCO1 (stereo unspecified)
pIC50 [3]: 6.00 to 7.30
pIC50 (Ephrin type-B receptor 4): > 7.30
pIC50 (Ephrin type-A receptor 2): > 7.30
pIC50 [2]: > 7.30

COc1cc2c(Nc3ccc(Br)c(Cl)c3)ncnc2cc1O[C@@H]1CCOC1
pIC50 [3]: 6.00 to 7.30
pIC50 (Ephrin type-B receptor 4): 6.00 to 7.30
pIC50 (Ephrin type-A receptor 2): 4.70 to 6.00
pIC50 [2]: 6.00 to 7.30

COc1cc2c(Nc3ccc(C)c(Cl)c3Cl)ncnc2cc1OCC1CN(C)CCO1 (stereo unspecified)
pIC50 [3]: 4.70 to 6.00
pIC50 (Ephrin type-B receptor 4): 6.00 to 7.30
pIC50 (Ephrin type-A receptor 2): 6.00 to 7.30
pIC50 [2]: > 7.30

COc1cc2c(Nc3ccc(Cl)c(Cl)c3)ncnc2cc1OCCC1CN(C)CC(C)(C)O1 (stereo unspecified)
pIC50 [3]: 6.00 to 7.30
pIC50 (Ephrin type-B receptor 4): 6.00 to 7.30
pIC50 (Ephrin type-A receptor 2): 4.70 to 6.00
pIC50 [2]: 6.00 to 7.30

COc1cc2c(Nc3ccc(Br)c(Cl)c3)ncnc2cc1OC1CCN(C)C1 (stereo unspecified)
pIC50 [3]: 4.70 to 6.00
pIC50 (Ephrin type-B receptor 4): 6.00 to 7.30
pIC50 (Ephrin type-A receptor 2): 4.70 to 6.00
pIC50 [2]: 6.00 to 7.30

COc1cc2c(Nc3ccc(Br)c(C)c3)ncnc2cc1OCC1CN(C)CCO1 (stereo unspecified)
pIC50 [3]: 6.00 to 7.30
pIC50 (Ephrin type-B receptor 4): 6.00 to 7.30
pIC50 (Ephrin type-A receptor 2): 6.00 to 7.30
pIC50 [2]: 6.00 to 7.30

COc1cc2c(Nc3ccc(Cl)c(Cl)c3)ncnc2cc1OCC1CN(C)C(C)(C)C(=O)O1 (stereo unspecified)
pIC50 [3]: 6.00 to 7.30
pIC50 (Ephrin type-B receptor 4): > 7.30
pIC50 (Ephrin type-A receptor 2): 6.00 to 7.30
pIC50 [2]: 6.00 to 7.30

CCN(CC)[C@H]1CO[C@H]2[C@@H]1OC[C@@H]2Oc1cc2ncnc(Nc3ccc(Br)c(Cl)c3)c2cc1OC
pIC50 [3]: 4.70 to 6.00
pIC50 (Ephrin type-B receptor 4): 6.00 to 7.30
pIC50 (Ephrin type-A receptor 2): 4.70 to 6.00
pIC50 [2]: 6.00 to 7.30

COc1cc2c(Nc3ccc(Cl)c(Cl)c3F)ncnc2cc1OC[C@@H]1CN(C)CC(=O)N1C
pIC50 [3]: 4.70 to 6.00
pIC50 (Ephrin type-B receptor 4): 6.00 to 7.30
pIC50 (Ephrin type-A receptor 2): 6.00 to 7.30
pIC50 [2]: 6.00 to 7.30

COc1cc2c(Nc3ccc(Cl)c(Cl)c3)ncnc2cc1OCC1CN(/C(=N/C#N)N2CCCC2)CCO1 (stereo unspecified)
pIC50 [3]: > 7.30
pIC50 (Ephrin type-B receptor 4): > 7.30
pIC50 (Ephrin type-A receptor 2): > 7.30
pIC50 [2]: 6.00 to 7.30

COc1cc2c(Nc3ccc(Cl)c(Cl)c3)ncnc2cc1OCCC1CNC(C)(C)CO1 (stereo unspecified)
pIC50 [3]: 6.00 to 7.30
pIC50 (Ephrin type-B receptor 4): 6.00 to 7.30
pIC50 (Ephrin type-A receptor 2): 6.00 to 7.30
pIC50 [2]: 6.00 to 7.30

CCC(=O)N1CCOC(COc2cc3ncnc(Nc4ccc(Cl)c(Cl)c4)c3cc2OC)C1 (stereo unspecified)
pIC50 [3]: > 7.30
pIC50 (Ephrin type-B receptor 4): > 7.30
pIC50 (Ephrin type-A receptor 2): 6.00 to 7.30
pIC50 [2]: 6.00 to 7.30

COc1cc2c(Nc3cccc(Cl)c3F)ncnc2cc1OCC1CN(/C(N)=N/C#N)CCCO1 (stereo unspecified)
pIC50 [3]: > 7.30
pIC50 (Ephrin type-B receptor 4): > 7.30
pIC50 (Ephrin type-A receptor 2): 6.00 to 7.30
pIC50 [2]: 6.00 to 7.30

COc1cc2c(Nc3ccc(Br)c(Cl)c3)ncnc2cc1O[C@H]1CO[C@H]2[C@@H]1OC[C@@H]2OC(C)=O
pIC50 [3]: 4.70 to 6.00
pIC50 (Ephrin type-B receptor 4): 6.00 to 7.30
pIC50 (Ephrin type-A receptor 2): 4.70 to 6.00
pIC50 [2]: 4.70 to 6.00

COc1cc2c(Nc3ccc(Br)c(Cl)c3F)ncnc2cc1OC[C@@H]1CN(C)CC(=O)N1
pIC50 [3]: 6.00 to 7.30
pIC50 (Ephrin type-B receptor 4): 6.00 to 7.30
pIC50 (Ephrin type-A receptor 2): 6.00 to 7.30
pIC50 [2]: 6.00 to 7.30

COc1cc2c(Nc3ccc(F)c(Cl)c3F)ncnc2cc1OCC1CN(C)C(C)(C)CO1 (stereo unspecified)
pIC50 [3]: 6.00 to 7.30
pIC50 (Ephrin type-B receptor 4): > 7.30
pIC50 (Ephrin type-A receptor 2): > 7.30
pIC50 [2]: 6.00 to 7.30

COc1cc2c(Nc3ccc(Br)c(Cl)c3F)ncnc2cc1OCC1CN(C)CCO1 (stereo unspecified)
pIC50 [3]: > 7.30
pIC50 (Ephrin type-B receptor 4): > 7.30
pIC50 (Ephrin type-A receptor 2): > 7.30
pIC50 [2]: > 7.30

COc1cc2c(Nc3ccc(Cl)c(Cl)c3)ncnc2cc1OCC1CN(C(=O)c2cccnc2Cl)CCO1 (stereo unspecified)
pIC50 [3]: > 7.30
pIC50 (Ephrin type-B receptor 4): > 7.30
pIC50 (Ephrin type-A receptor 2): 6.00 to 7.30
pIC50 [2]: > 7.30

COc1cc2c(Nc3ccc(Cl)c(Cl)c3)ncnc2cc1OCc1nc2c(s1)CN(C)CC2
pIC50 [3]: > 7.30
pIC50 (Ephrin type-B receptor 4): > 7.30
pIC50 (Ephrin type-A receptor 2): 6.00 to 7.30
pIC50 [2]: 6.00 to 7.30

COc1cc2c(Nc3ccc(F)c(Cl)c3F)ncnc2cc1OCC1CN(C)CCO1 (stereo unspecified)
pIC50 [3]: > 7.30
pIC50 (Ephrin type-B receptor 4): > 7.30
pIC50 (Ephrin type-A receptor 2): > 7.30
pIC50 [2]: > 7.30

COc1cc2c(Nc3ccc(Cl)c(Cl)c3)ncnc2cc1OCC1CN(C(C)=O)CCCO1 (stereo unspecified)
pIC50 [3]: > 7.30
pIC50 (Ephrin type-B receptor 4): > 7.30
pIC50 (Ephrin type-A receptor 2): 6.00 to 7.30
pIC50 [2]: 6.00 to 7.30

COc1cc2c(Nc3ccc(Br)c(Cl)c3)ncnc2cc1O[C@@H]1CO[C@H]2[C@@H]1OC[C@@H]2OS(C)(=O)=O
pIC50 [3]: 4.70 to 6.00
pIC50 (Ephrin type-B receptor 4): 4.70 to 6.00
pIC50 (Ephrin type-A receptor 2): 4.70 to 6.00
pIC50 [2]: 4.70 to 6.00

COc1cc2c(Nc3ccc(Br)c(F)c3F)ncnc2cc1OCC1CN(C)CCO1 (stereo unspecified)
pIC50 [3]: 6.00 to 7.30
pIC50 (Ephrin type-B receptor 4): 6.00 to 7.30
pIC50 (Ephrin type-A receptor 2): 6.00 to 7.30
pIC50 [2]: > 7.30

CCNC(=NC#N)N1CCOC(COc2cc3ncnc(Nc4ccc(Cl)c(Cl)c4)c3cc2OC)C1 (stereo unspecified)
pIC50 [3]: > 7.30
pIC50 (Ephrin type-B receptor 4): > 7.30
pIC50 (Ephrin type-A receptor 2): 6.00 to 7.30
pIC50 [2]: 6.00 to 7.30

CN[C@H]1CO[C@H]2[C@@H]1OC[C@@H]2Oc1cc2ncnc(Nc3ccc(Br)c(Cl)c3)c2cc1OC
pIC50 [3]: 4.70 to 6.00
pIC50 (Ephrin type-B receptor 4): 6.00 to 7.30
pIC50 (Ephrin type-A receptor 2): 4.70 to 6.00
pIC50 [2]: 4.70 to 6.00

COc1cc2c(Nc3ccc(Cl)c(Cl)c3)ncnc2cc1OCC1CN(C(=O)c2c(C)noc2C)CCO1 (stereo unspecified)
pIC50 [3]: > 7.30
pIC50 (Ephrin type-B receptor 4): > 7.30
pIC50 (Ephrin type-A receptor 2): 6.00 to 7.30
pIC50 [2]: 6.00 to 7.30

COc1cc2c(Nc3ccc(Br)c(Cl)c3)ncnc2cc1O[C@H]1CO[C@H]2[C@@H]1OC[C@@H]2N1CCCCC1
pIC50 [3]: 4.70 to 6.00
pIC50 (Ephrin type-B receptor 4): 6.00 to 7.30
pIC50 (Ephrin type-A receptor 2): 4.70 to 6.00
pIC50 [2]: 4.70 to 6.00

COc1cc2c(Nc3ccc(Br)c(Cl)c3)ncnc2cc1O[C@H]1CO[C@H]2[C@@H]1OC[C@@H]2N
pIC50 [3]: 4.70 to 6.00
pIC50 (Ephrin type-B receptor 4): 6.00 to 7.30
pIC50 (Ephrin type-A receptor 2): 4.70 to 6.00
pIC50 [2]: 4.70 to 6.00

COc1cc2c(Nc3ccc(C)c(Br)c3)ncnc2cc1OCC1CN(C)CCO1 (stereo unspecified)
pIC50 [3]: 6.00 to 7.30
pIC50 (Ephrin type-B receptor 4): > 7.30
pIC50 (Ephrin type-A receptor 2): 6.00 to 7.30
pIC50 [2]: > 7.30

COc1cc2c(Nc3ccc(Cl)c(Cl)c3)ncnc2cc1OCC1CN(C)C(C)(C)CO1 (stereo unspecified)
pIC50 [3]: > 7.30
pIC50 (Ephrin type-B receptor 4): > 7.30
pIC50 (Ephrin type-A receptor 2): 6.00 to 7.30
pIC50 [2]: > 7.30

COc1cc2c(Nc3ccc(Br)c(Cl)c3Cl)ncnc2cc1OCC1CN(C)CCO1 (stereo unspecified)
pIC50 [3]: 6.00 to 7.30
pIC50 (Ephrin type-B receptor 4): > 7.30
pIC50 (Ephrin type-A receptor 2): 6.00 to 7.30
pIC50 [2]: 6.00 to 7.30
